Measurements taken from patent publication US12486231B2, “Targeted nitroxide compounds and their use in treating ferroptosis-related diseases” (University of Pittsburgh—Of the Commonwealth System of …, priority 2019, dated 2025).
Where two headings read alike, the source gives them in different places.

Legend:
HT-1080 cells = assay: Protection against Erastin-induced ferroptosis in HT-1080 cells (CellTiter-Glo); format: cell-based; conditions: for Erastin-induced ferroptosis in HT-1080 cells: % activity remaining at 1 μM / % Activity remaining (value at a concentration of 1 μM): compound 1 μM; for % Activity remaining (value at a concentration of 1 μM): relative to vehicle and Erastin samples
Procedure: Compounds 6c, 6e, 6f, and 6i, as described above, were tested at a concentration of 1 μM, yielding values of 6c (85%), 6e (80%), 6f (77%), 6g (16%), 6h (78%), 6i (57%), and 6j (83%). For comparison, JP4-039 yielded a value of 56%. […] Briefly, 200 μL of a 5,000 cell/mL solution of HT-1080 cells were incubated for 24 h at 37° C. at 5% CO2, 95% humidity. The compounds were dissolved in DMSO and diluted to desired testing concentration. Compounds (1 μL) were added to culture medium (1 mL) containing 10 μM Erastin and incubated at 37° C., 5% CO2, 95% humidity for 24 h. CellTiter-Glo® reagent was added and the plate was incubated for 20 min at rt, sealed, centrifuged (1 min) at 1,000 rpm, shaken (1 min), and read in Enspire. % Activity remaining was determined as a function of vehicle sample and Erastin sample.
B. Compounds 6a-6n were tested for their protection against Erastin-induced ferroptosis in HT-1080 cells. Briefly, 200 μL of a 5,000 cell/mL solution of HT-1080 cells were incubated for 24 h at 37° C. at 5% CO2, 95% humidity. The compounds were dissolved in DMSO and diluted to desired testing concentration. Compounds (1 μL) were added to culture medium (1 mL) containing 10 μM Erastin and incubated at 37° C., 5% CO2, 95% humidity for 24 h. CellTiter-Glo® reagent was added and the plate was incubated for 20 min at rt, sealed, centrifuged (1 min) at 1,000 rpm, shaken (1 min), and read in Enspire. % Activity remaining was determined as a function of vehicle sample and Erastin sample.

[1] = 10 μM Erastin, 24 h, HT-1080 cells
[2] = 10 μM Erastin, 24 h, HT-1080 cells, read-out: EC50

Compound | logP (log P) | Erastin-induced ferroptosis in HT-1080 cells: % activity remaining at 1 μM (HT-1080 cells; [1]) | % Activity remaining (value at a concentration of 1 μM) (HT-1080 cells; [1]) | log P (log P) | other results
CC(C)(C)OC(=O)N[C@@H](/C=C/CC(=O)NC1CC(C)(C)N([O])C(C)(C)C1)c1ccccc1 [6b, tert-Butyl (S,E)-(5-((1-oxy-2,2,6,6-tetramethylpiperidin-4-yl)amino)-5-oxo-1-phenylpent-2-en-1-yl)carbamate] | 2.92 |  |  |  | EC50 (HT-1080 cells; Homo sapiens, HT-1080, 24 h): 948 nM
CC(C)C[C@@H](/C=C/CNC(=O)C1CC(C)(C)N([O])C(C)(C)C1)NC(=O)OC(C)(C)C [6i, tert-Butyl (S,E)-(1-(1-oxy-2,2,6,6-tetramethylpiperidine-4-carboxamido)-6-methylhept-2-en-4-yl)carbamate] | 3.15 | 57% | 57% |  | 
CC(C)C[C@@H](/C=C/[C@H](Cc1ccccc1)C(=O)NC1CC(C)(C)N(O)C(C)(C)C1)NC(=O)OC(C)(C)C [6j, tert-Butyl ((4S,7S,E)-7-benzyl-8-((1-oxy-2,2,6,6-tetramethylpiperidin-4-yl)amino)-2-methyl-8-oxooct-5-en-4-yl)carbamate] | 4.93 | 83% | 83% |  | EC50 (HT-1080 cells; Homo sapiens, 10 μM Erastin, 24 h, HT-1080 cells, read-out: EC50): 207 nM; EC50 (HT-1080 cells; Homo sapiens, 10 μM Erastin, 24 h, HT-1080 cells, read-out: Erastin-induced ferroptosis in HT-1080 cells: EC50): 207 nM
CC(C)C[C@@H](/C=C/[C@H](Cc1ccc(F)cc1)C(=O)NC1CC(C)(C)N(O)C(C)(C)C1)NC(=O)OC(C)(C)C [6k, tert-Butyl ((4S,7S,E)-7-(4-fluorobenzyl)-8-((1-oxy-2,2,6,6-tetramethylpiperidin-4-yl)amino)-2-methyl-8-oxooct-5-en-4-yl)carbamate] | 5.09 |  |  |  | 
CC(C)CC(C=CCC(=O)NC1CC(C)(C)N([O])C(C)(C)C1)NC(=O)OC(C)(C)C [6l, tert-Butyl (S,Z)-(8-((1-oxy-2,2,6,6-tetramethylpiperidin-4-yl)amino)-2-methyl-8-oxooct-5-en-4-yl)carbamate] |  |  |  | 2.76 | 
CC(C)C[C@@H](CCCC(=O)NC1CC(C)(C)N([O])C(C)(C)C1)NC(=O)OC(C)(C)C [6m, tert-Butyl (R)-(8-((1-oxy-2,2,6,6-tetramethylpiperidin-4-yl)amino)-2-methyl-8-oxooctan-4-yl)carbamate] | 2.94 |  |  |  | 
CCCCCCCC(=O)NC1CC(C)(C)N([O])C(C)(C)C1 [6n, N-(1-Oxy-2,2,6,6-tetramethylpiperidin-4-yl)octanamide] | 2.83 |  |  |  | 
tert-Butyl (S,E)-(1-(1-((1-oxy-2,2,6,6-tetramethylpiperidin-4-yl)carbamoyl)cyclopentyl)-5-methylhex-1-en-3-yl)carbamate [6f] |  | 77% | 77% | 4.37 | 
tert-Butyl (S,E)-(1-(1-((1-oxy-2,2,6,6-tetramethylpiperidin-4-yl)carbamoyl)cyclopropyl)-5-methylhex-1-en-3-yl)carbamate [6e] |  | 80% | 80% | 3.53 | EC50 (HT-1080 cells; 10 μM Erastin, 24 h, HT-1080 cells, read-out: Erastin-induced ferroptosis in HT-1080 cells: EC50): 958 nM
tert-Butyl (S,E)-(1-(4-((1-oxy-2,2,6,6-tetramethylpiperidin-4-yl)carbamoyl)tetrahydro-2H-pyran-4-yl)-5-methylhex-1-en-3-yl)carbamate [6g] |  | 16% | 16% | 3.10 | 
tert-Butyl (S,E)-(5-((1-oxy-2,2,6,6-tetramethylpiperidin-4-yl)amino)-4,4-dimethyl-5-oxo-1-phenylpent-2-en-1-yl)carbamate [6a] |  |  |  | 4.19 | 
tert-Butyl (S,E)-(7,7-dibenzyl-8-((1-oxy-2,2,6,6-tetramethylpiperidin-4-yl)amino)-2-methyl-8-oxooct-5-en-4-yl)carbamate [6d] |  | 78% |  | 7.24 | EC50 (HT-1080 cells; [2]): 173 nM
tert-Butyl (S,E)-(7-(1-oxy-2,2,6,6-tetramethylpiperidine-4-carboxamido)-2,7-dimethyloct-5-en-4-yl)carbamate [6h] |  | 78% | 78% | 3.68 | EC50 (HT-1080 cells; [2]): 576 nM
tert-Butyl (S,E)-(8-((1-oxy-2,2,6,6-tetramethylpiperidin-4-yl)amino)-2,7,7-trimethyl-8-oxooct-5-en-4-yl)carbamate [6c] |  | 85% | 85% | 4.03 | 
